Assay results published in US20100003217A1, “Compounds and Pharmaceutical Compositions for the Treatment of Viral Infections” (priority 2008, published 2010).
Several values for one entry are separate records, joined by “and”; a condition that tells them apart may be missing. Identical values can stand only once.

Tested on: rat primary hepatocytes
Assay: Metabolic disposition of [^14C]-Compound 1 and [^14C]-2′-C-methyl guanosine in rat primary hepatocytes (incubation medium, cellular extracts, nucleotide levels)
Type: in vitro ADME, Sprague Dawley rat
Protocol: Primary hepatocytes: Freshly isolated cells from animal and human liver were obtained in suspension on ice. Cells were pelleted by centrifugation at 70-75×g (rat) or 95-90×g (monkey and human) and resuspended at 0.8 million cells per mL of platting medium (William's E supplemented with 5% FBS, 0.5% penicillin-streptomycin, 1% L-glutamine, 4 μg/mL insulin and 1 μM dexamethasone). Multi-well collagen I-coated plates (rat tail collagen type I; 12- or 6-well) were then seeded by addition of 1 mL (12-well; 0.8 million cells/well) or 2 mL (6-well; 1.6 million cells/well) of cell suspension. The plates were gently shaken to evenly distribute the cells and placed in an incubator at 37° C. for approximately 4 to 6 hours to allow cells to attach. Once cells were attached, the platting medium was removed and replaced with hepatocyte culture medium (William's E supplemented with penicillin-streptomycin, 1% L-glutamine, 1% insulin-transferrin-selenium and 0.1 μM dexamethasone). Cells were left overnight in an incubator at 37° C. to acclimatize to culture and the medium.
Hepatocyte incubations with radiolabeled Compound 1 and 2′-C-methyl guanosine, both labeled in the C-8 position of the guanine moiety, were conducted at a final volume of 2.0 mL hepatocyte culture medium/well ([…]). Culture medium from overnight incubation of cells was removed and replaced with fresh medium, pre-warmed to 37° C., containing 1 or 10 μM [^14C]-Compound 1 ([…]) or [^14C]-2′-C-methyl guanosine (127 DPM/μmol) from a stock solution in DMSO (final DMSO concentration was 0.1%) or 50% ethanol (final ethanol concentration was 0.2%). After 1, 4, 8 and 24 hours, 0.5-1.0 mL of incubation medium was removed and stored at −20° C. until analysis (described below). The remaining medium was discarded and cell monolayers were carefully washed two times with ice-cold PBS. Following the last wash, all PBS was carefully removed and 1.0 mL of extraction solution (ice-cold 70% methanol) added. Cells were scrapped off and suspended in the extraction solution, transferred to 2 mL polypropylene microfuge tubes and intracellular contents extracted overnight at −20° C.
Preliminary identification of putative metabolites was conducted by comparing the retention time of observed metabolites in incubation medium and cellular extracts with retention times obtained with chemically synthesized standards using the chromatography conditions described below. Further identification of 2′-C-methyl guanosine nucleotides (mono-, di- and triphosphate) was carried out by incubating cellular extract samples with alkaline phosphatase (10 units for 60 min at 37° C.) and comparing the HPLC retention times of the resulting nucleosides with that of authentic 2′-C-methyl guanosine.
Cellular extracts were prepared by centrifugation at 16,000 RCF using an Eppendorf microcentrifuge (Eppendorf, Model 5415D) for 10 min to remove cellular debris. An aliquot of 5-10 μL of the supernatant was added to 5 mL of EcoLite™ (MP, Irvine, Calif.) liquid scintillation cocktail and radioactivity measured by liquid scintillation counting (LSC) using a Beckman Coulter LS6500 multipurpose liquid scintillation counter (Beckman Instruments, Fullerton, Calif.). The remaining sample was then dried using a Labconco refrigerated centrivap concentrator (Labconco, Kansas City, Mo.). Dry extracts were reconstituted in 120 μL of HPLC-grade water and centrifuged at 16,000 RCF using an Eppendorf microcentrifuge for 10 min. Prior to HPLC analysis (described below), radioactivity of the concentrated extracts was measured by LSC using 5 μL aliquots. Extraction recovery was then determined by comparing total radioactivity in extracts before and after drying. The remaining extract was then analyzed by HPLC with online radioactivity detection using a Flow Scintillation Analyzer Radiomatic™ 515TR. Radioactivity in the separated components was quantified by integrating the peaks using Flo-One™ Software (Perkin Elmer Life Sciences). […]

[1] = rat hepatocytes (Rs458), 1 μM [^14C]-Compound 1, 0 h
[2] = rat hepatocytes (Rs458), 1 μM [^14C]-Compound 1, 1 h
[3] = rat hepatocytes (Rs458), 1 μM [^14C]-Compound 1, 8 h
[4] = rat hepatocytes (Rs458), 1 μM [^14C]-Compound 1, 24 h
[5] = rat hepatocytes (lots Rs448, Rs458), 10 μM [^14C]-Compound 1, 0 h
[6] = rat hepatocytes (lots Rs448, Rs458), 10 μM [^14C]-Compound 1, 4 h
[7] = rat hepatocytes (lots Rs448, Rs458), 10 μM [^14C]-Compound 1, 8 h
[8] = rat hepatocytes (lots Rs448, Rs458), 10 μM [^14C]-Compound 1, 24 h
[9] = rat hepatocytes Rs448, 10 μM [^14C]-2′-C-methyl guanosine, 1 h
[10] = rat hepatocytes Rs448, 10 μM [^14C]-2′-C-methyl guanosine, 4 h
[11] = rat hepatocytes Rs448, 10 μM [^14C]-2′-C-methyl guanosine, 8 h
[12] = rat hepatocytes Rs448, 10 μM [^14C]-2′-C-methyl guanosine, 24 h
[13] = rat hepatocytes Rs458, 1 μM [^14C]-2′-C-methyl guanosine, 1 h
[14] = rat hepatocytes Rs458, 1 μM [^14C]-2′-C-methyl guanosine, 8 h
[15] = rat hepatocytes Rs458, 1 μM [^14C]-2′-C-methyl guanosine, 24 h
[16] = rat hepatocytes Rs458, 10 μM [^14C]-2′-C-methyl guanosine, 1 h
[17] = rat hepatocytes Rs458, 10 μM [^14C]-2′-C-methyl guanosine, 4 h
[18] = rat hepatocytes Rs458, 10 μM [^14C]-2′-C-methyl guanosine, 8 h
[19] = rat hepatocytes Rs458, 10 μM [^14C]-2′-C-methyl guanosine, 24 h

C[C@@]1(O)[C@H](O)[C@@H](COP(=O)(O)O)O[C@H]1n1cnc2c(=O)[nH]c(N)nc21 [Compound 5, [(2R)-2-methyl-β-D-ribofuranosyl]guanine 5′-monophosphate]
metabolites observed in cellular extracts (% of total radioactivity) (rat hepatocytes (Rs448, Rs458), 10 μM [^14C]-Compound 1, 1 h, listed as Compd 5): 4.37% and 2.65% | metabolites observed in cellular extracts (% of total radioactivity) (rat hepatocytes (Rs448, Rs458), 10 μM [^14C]-Compound 1, 4 h, listed as Compd 5): 4.02% and 4.53% | metabolites observed in cellular extracts (% of total radioactivity) (rat hepatocytes (Rs448, Rs458), 10 μM [^14C]-Compound 1, 8 h, listed as Compd 5): 3.23% and 3.84% | 2′-C-methyl guanosine nucleotide levels in cellular extracts [1]: BLD (BLD = below limit of detection (0.02 pmol/million cells)) | metabolites observed in medium (% of total radioactivity) [1]: BLD | 2′-C-methyl guanosine nucleotide levels in cellular extracts [2]: 6.00 pmol/million cells | metabolites observed in cellular extracts (% of total radioactivity) [2]: 3.74% | metabolites observed in medium (% of total radioactivity) [2]: BLD | 2′-C-methyl guanosine nucleotide levels in cellular extracts [3]: 11.0 pmol/million cells | metabolites observed in cellular extracts (% of total radioactivity) [3]: 3.51% | metabolites observed in medium (% of total radioactivity) [3]: 6.41% | 2′-C-methyl guanosine nucleotide levels in cellular extracts [4]: 11.0 pmol/million cells | metabolites observed in cellular extracts (% of total radioactivity) [4]: 6.68% | metabolites observed in medium (% of total radioactivity) [4]: no Compound 5 was detected and BLD | metabolites observed in medium (% of total radioactivity) [5]: BLD | metabolites observed in medium (% of total radioactivity) [6]: 5.3% and 3.6% | metabolites observed in medium (% of total radioactivity) [7]: 6.1% and 3.3% | metabolites observed in medium (% of total radioactivity) [8]: 2.9% and 2.6% | 2′-C-methyl guanosine nucleotide levels in cellular extracts (rat hepatocytes Rs448, 10 μM [^14C]-2′-C-methyl guanosine, 0 h): 0 pmol/million cells | 2′-C-methyl guanosine nucleotide levels in cellular extracts [9]: BLD^a (BLD = below limit of detection (0.02 pmol/million cells)) | Major metabolites observed in cellular extracts (% of total radioactivity) [9]: BLD^a (BLD = below limit of detection (30 DPM)) | 2′-C-methyl guanosine nucleotide levels in cellular extracts [10]: BLD (BLD = below limit of detection (0.02 pmol/million cells)) | Major metabolites observed in cellular extracts (% of total radioactivity) [10]: BLD (BLD = below limit of detection (30 DPM)) | 2′-C-methyl guanosine nucleotide levels in cellular extracts [11]: BLD (BLD = below limit of detection (0.02 pmol/million cells)) | Major metabolites observed in cellular extracts (% of total radioactivity) [11]: BLD (BLD = below limit of detection (30 DPM)) | 2′-C-methyl guanosine nucleotide levels in cellular extracts [12]: 25.0 pmol/million cells | Major metabolites observed in cellular extracts (% of total radioactivity) [12]: 2.56 % of total radioactivity | 2′-C-methyl guanosine nucleotide levels in cellular extracts (rat hepatocytes Rs448, 10 μM [^14C]-Compound 1, 0 h): 0 pmol/million cells | 2′-C-methyl guanosine nucleotide levels in cellular extracts (rat hepatocytes Rs448, 10 μM [^14C]-Compound 1, 1 h): 43.0 pmol/million cells | 2′-C-methyl guanosine nucleotide levels in cellular extracts (rat hepatocytes Rs448, 10 μM [^14C]-Compound 1, 4 h): 81.0 pmol/million cells | 2′-C-methyl guanosine nucleotide levels in cellular extracts (rat hepatocytes Rs448, 10 μM [^14C]-Compound 1, 8 h): 79.0 pmol/million cells | 2′-C-methyl guanosine nucleotide levels in cellular extracts (rat hepatocytes Rs448, 10 μM [^14C]-Compound 1, 24 h): 39.0 pmol/million cells | 2′-C-methyl guanosine nucleotide levels in cellular extracts (rat hepatocytes Rs458, 1 μM [^14C]-2′-C-methyl guanosine, 0 h): BLD (BLD = below limit of detection (0.02 pmol/million cells)) | 2′-C-methyl guanosine nucleotide levels in cellular extracts [13]: BLD (BLD = below limit of detection (0.02 pmol/million cells)) | Major metabolites observed in cellular extracts (% of total radioactivity) [13]: BLD^a (BLD = below limit of detection (30 DPM)) | 2′-C-methyl guanosine nucleotide levels in cellular extracts [14]: BLD (BLD = below limit of detection (0.02 pmol/million cells)) | Major metabolites observed in cellular extracts (% of total radioactivity) [14]: BLD (BLD = below limit of detection (30 DPM)) | 2′-C-methyl guanosine nucleotide levels in cellular extracts [15]: 5.40 pmol/million cells | Major metabolites observed in cellular extracts (% of total radioactivity) [15]: 6.83 % of total radioactivity | 2′-C-methyl guanosine nucleotide levels in cellular extracts (rat hepatocytes Rs458, 10 μM [^14C]-2′-C-methyl guanosine, 0 h): 0 pmol/million cells | 2′-C-methyl guanosine nucleotide levels in cellular extracts [16]: BLD (BLD = below limit of detection (0.02 pmol/million cells)) | Major metabolites observed in cellular extracts (% of total radioactivity) [16]: BLD^a (BLD = below limit of detection (30 DPM)) | 2′-C-methyl guanosine nucleotide levels in cellular extracts [17]: BLD (BLD = below limit of detection (0.02 pmol/million cells)) | Major metabolites observed in cellular extracts (% of total radioactivity) [17]: BLD (BLD = below limit of detection (30 DPM)) | 2′-C-methyl guanosine nucleotide levels in cellular extracts [18]: BLD (BLD = below limit of detection (0.02 pmol/million cells)) | Major metabolites observed in cellular extracts (% of total radioactivity) [18]: BLD (BLD = below limit of detection (30 DPM)) | 2′-C-methyl guanosine nucleotide levels in cellular extracts [19]: 88.0 pmol/million cells | Major metabolites observed in cellular extracts (% of total radioactivity) [19]: 9.39 % of total radioactivity | 2′-C-methyl guanosine nucleotide levels in cellular extracts (rat hepatocytes Rs458, 10 μM [^14C]-Compound 1, 0 h): 0 pmol/million cells | 2′-C-methyl guanosine nucleotide levels in cellular extracts (rat hepatocytes Rs458, 10 μM [^14C]-Compound 1, 1 h): 28.0 pmol/million cells | 2′-C-methyl guanosine nucleotide levels in cellular extracts (rat hepatocytes Rs458, 10 μM [^14C]-Compound 1, 4 h): 88.0 pmol/million cells | 2′-C-methyl guanosine nucleotide levels in cellular extracts (rat hepatocytes Rs458, 10 μM [^14C]-Compound 1, 8 h): 86.0 pmol/million cells | 2′-C-methyl guanosine nucleotide levels in cellular extracts (rat hepatocytes Rs458, 10 μM [^14C]-Compound 1, 24 h): 181 pmol/million cells

C[C@@]1(O)[C@H](O)[C@@H](COP(=O)(O)NCc2ccccc2)O[C@H]1n1cnc2c(=O)[nH]c(N)nc21 [Compound 2, [(2R)-2-methyl-β-D-ribofuranosyl]guanine-N-benzylaminyl-5′-monophosphate]
metabolites observed in cellular extracts (% of total radioactivity) (rat hepatocytes (Rs448, Rs458), 10 μM [^14C]-Compound 1, 1 h, listed as Compd 2): 1.92% and 3.48% | metabolites observed in cellular extracts (% of total radioactivity) (rat hepatocytes (Rs448, Rs458), 10 μM [^14C]-Compound 1, 8 h): BLD | metabolites observed in cellular extracts (% of total radioactivity) (rat hepatocytes (Rs448, Rs458), 10 μM [^14C]-Compound 1, 24 h): BLD | metabolites observed in medium (% of total radioactivity) [1]: 1.05% | metabolites observed in cellular extracts (% of total radioactivity) [2]: 5.83% | metabolites observed in medium (% of total radioactivity) [2]: 3.02% | metabolites observed in cellular extracts (% of total radioactivity) [3]: BLD | metabolites observed in medium (% of total radioactivity) [3]: 9.52% | metabolites observed in cellular extracts (% of total radioactivity) [4]: BLD | metabolites observed in medium (% of total radioactivity) [4]: 7% and 7.43% | metabolites observed in medium (% of total radioactivity) [5]: 2.2% and 1.5% | metabolites observed in medium (% of total radioactivity) (rat hepatocytes (lots Rs448, Rs458), 10 μM [^14C]-Compound 1, 1 h): 1.9% and 1.5% | metabolites observed in medium (% of total radioactivity) [6]: 5.3% and 5.1% | metabolites observed in medium (% of total radioactivity) [7]: 5.7% and 6.8% | metabolites observed in medium (% of total radioactivity) [8]: 3.7% and 4.6%
